# Test results taken from ChEMBL document CHEMBL5518238, “Structure-Activity Relationship (SAR) Studies of Novel Monovalent AR/AR-V7 Dual Degraders with Potent Efficacy against Advanced Prostate Cancer” (J Med Chem, 2024).
# Calls of active or inactive are those of the source. The rule behind the calls is not given here.
# Experiments:
# CWR22R [1] = assay: cells; assay type: functional, cell-based; settings: Homo sapiens, 22Rv1, 48 h
# Description: Antiproliferative activity against AR/AR-V7 positive human 22Rv1 cells assessed as inhibition of cell growth incubated for 48 hrs by CCK-8 assay
# DU-145 = assay: Antiproliferative activity against AR-negative human DU-145 cells assessed as inhibition of cell growth incubated for 48 hrs by CCK-8 assay; assay type: functional, cell-based; settings: DU-145, 48 h
# [2] = target: T1, Androgen receptor (Homo sapiens) (UniProt P10275); assay: Induction of AR degradation in human LNCaP cells incubated for 24 hrs by Western blot analysis; assay type: cell-based; settings: dose <= 30.0 µM
# T1 sequence (whole entry): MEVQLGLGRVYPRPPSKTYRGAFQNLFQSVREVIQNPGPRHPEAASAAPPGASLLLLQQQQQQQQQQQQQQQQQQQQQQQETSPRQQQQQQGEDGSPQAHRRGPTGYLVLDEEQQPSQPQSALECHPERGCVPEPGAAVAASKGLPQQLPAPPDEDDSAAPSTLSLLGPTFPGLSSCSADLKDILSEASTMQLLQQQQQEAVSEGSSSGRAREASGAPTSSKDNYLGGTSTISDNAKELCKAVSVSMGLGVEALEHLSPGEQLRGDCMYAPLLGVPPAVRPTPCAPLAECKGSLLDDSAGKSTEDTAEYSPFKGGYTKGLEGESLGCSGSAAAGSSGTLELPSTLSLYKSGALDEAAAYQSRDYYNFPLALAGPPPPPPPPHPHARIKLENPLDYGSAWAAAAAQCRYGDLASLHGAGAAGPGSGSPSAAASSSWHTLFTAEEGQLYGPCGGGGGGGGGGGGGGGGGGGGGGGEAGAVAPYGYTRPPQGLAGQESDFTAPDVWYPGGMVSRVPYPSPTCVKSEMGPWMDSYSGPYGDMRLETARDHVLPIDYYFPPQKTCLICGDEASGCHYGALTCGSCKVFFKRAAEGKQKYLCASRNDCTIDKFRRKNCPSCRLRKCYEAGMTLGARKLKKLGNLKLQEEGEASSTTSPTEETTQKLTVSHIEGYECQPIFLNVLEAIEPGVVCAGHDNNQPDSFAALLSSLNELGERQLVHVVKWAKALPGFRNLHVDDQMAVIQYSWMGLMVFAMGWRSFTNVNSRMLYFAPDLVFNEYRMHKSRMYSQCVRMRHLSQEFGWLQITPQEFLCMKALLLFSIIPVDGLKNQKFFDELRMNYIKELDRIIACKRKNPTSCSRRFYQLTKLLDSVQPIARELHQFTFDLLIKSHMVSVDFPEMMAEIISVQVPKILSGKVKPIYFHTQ
# [3] = test system: Androgen receptor (Homo sapiens), P10275 [UNDEFINED MUTATION]; assay: Induction of AR-V7 degradation in human 22Rv1 cells at 10 uM incubated for 24 hrs in presence of CHX by Western blot analysis; assay type: cell-based
# [4] = test system: Androgen receptor (Homo sapiens), P10275 [UNDEFINED MUTATION]; assay: Induction of AR-V7 degradation in human 22Rv1 cells at 20 uM incubated for 24 hrs in presence of Bortezomib by Western blot analysis; assay type: cell-based
# CWR22R [5] = assay: Effect on MR level in human 22Rv1 at 2.5 to 20 uM incubated for 24 hrs by Western blot analysis; assay type: functional, cell-based; settings: dose 2.5-20 µM
# CWR22R [6] = assay: Downregulation of AR expression in human 22Rv1 cells at 5 uM incubated for 24 hrs by Western blot analysis; assay type: functional, cell-based
# CWR22R [7] = assay: Downregulation of DHCR24 mRNA expression in human 22Rv1 cells at 10 uM incubated for 24 hrs by qRT-PCR analysis; assay type: functional, cell-based
# CWR22R [8] = assay: Downregulation of NKX3-1 mRNA expression in human 22Rv1 cells at 10 uM incubated for 24 hrs by qRT-PCR analysis; assay type: functional, cell-based
# CWR22R [9] = assay: Downregulation of MYC mRNA expression in human 22Rv1 cells at 10 uM incubated for 24 hrs by qRT-PCR analysis; assay type: functional, cell-based
# CWR22R [10] = assay: Downregulation of MMP16 mRNA expression in human 22Rv1 cells at 10 uM incubated for 24 hrs by qRT-PCR analysis; assay type: functional, cell-based
# CWR22R [11] = assay: Downregulation of BCHE mRNA expression in human 22Rv1 cells at 10 uM incubated for 24 hrs by qRT-PCR analysis; assay type: functional, cell-based
# CWR22R [12] = assay: Downregulation of ACSL3 mRNA expression in human 22Rv1 cells at 10 uM incubated for 24 hrs by qRT-PCR analysis; assay type: functional, cell-based
# CWR22R [13] = assay: Downregulation of KLK3 mRNA expression in human 22Rv1 cells incubated for 24 hrs by qRT-PCR analysis; assay type: functional, cell-based; settings: dose 5-10 µM
# CWR22R [14] = assay: Downregulation of […] mRNA expression in human 22Rv1 cells incubated for 24 hrs by qRT-PCR analysis; assay type: functional, cell-based; settings: dose 5-10 µM
# CWR22R [15] = assay: Downregulation of KLK2 mRNA expression in human 22Rv1 cells incubated for 24 hrs by qRT-PCR analysis; assay type: functional, cell-based; settings: dose 5-10 µM
# CWR22R [16] = assay: Downregulation of AR mRNA expression in human 22Rv1 cells at 5 to 10 uM incubated for 12 hrs by qRT-PCR analysis; assay type: functional, cell-based; settings: dose 5-10 µM
# CWR22R [17] = assay: Downregulation of AR-V7 mRNA expression in human 22Rv1 cells at 5 to 10 uM incubated for 12 hrs by qRT-PCR analysis; assay type: functional, cell-based; settings: dose 5-10 µM
# CWR22R [18] = assay: Induction of apoptosis in human 22Rv1 cells at 10 uM incubated for 24 hrs by Annexin V-FITC/PI staining based flow cytometric analysis (reference value: 3.70 %); assay type: functional
# CWR22R [19] = assay: Induction of apoptosis in human 22Rv1 cells assessed as effect on PARP1 level incubated for 24 hrs by Western blot analysis; assay type: functional, cell-based; settings: dose <= 10.0 µM
# [20] = Stability in mouse plasma assessed as half life measured after 60 mins; assay type: ADME, cell-free
# [21] = Half life in Sprague-Dawley rat at 5 mg/kg, iv by LC-MS/MS analysis; assay type: ADME, organism-based; settings: in vivo
# [22] = Volume of distribution at steady state in Sprague-Dawley rat at 5 mg/kg, iv by LC-MS/MS analysis; assay type: ADME, organism-based; settings: in vivo
# [23] = AUC (0 to t) in Sprague-Dawley rat at 50 mg/kg, po by LC-MS/MS analysis; assay type: ADME, organism-based; settings: in vivo
# [24] = MRT (0 to t) in Sprague-Dawley rat at 50 mg/kg, po by LC-MS/MS analysis; assay type: ADME, organism-based; settings: in vivo
# [25] = Oral bioavailability in Sprague-Dawley rat at 50 mg/kg by LC-MS/MS analysis; assay type: ADME, organism-based; settings: in vivo
# [26] = Toxicity in NSG mouse xenografted with human 22Rv1 cells assessed as liver damage t at 30 mg/kg, IG administered once daily for 21 days by H and E staining based analysis; assay type: organism-based, CWR22R; settings: in vivo, po, 504 h, time 21 day
# [27] = Toxicity in NSG mouse xenografted with human 22Rv1 cells assessed as lung damage t at 30 mg/kg, IG administered once daily for 21 days by H and E staining based analysis; assay type: organism-based, CWR22R; settings: in vivo, po, 504 h, time 21 day
# [28] = Toxicity in NSG mouse xenografted with human 22Rv1 cells assessed as kidney damage t at 30 mg/kg, IG administered once daily for 21 days by H and E staining based analysis; assay type: organism-based, CWR22R; settings: in vivo, po, 504 h, time 21 day
# CWR22R [29] = assay: Antitumor activity against human 22Rv1 cells xenografted in NSG mouse assessed as decrease in AR level in tumor at 10 mg/kg, IG administered once daily for 3 days by […] based analysis; assay type: functional, organism-based; settings: time 3.0 day
smiles,measurement,setting,value
CC1(C)C(=O)N(c2ccc(C#N)c(C(F)(F)F)c2)C(=O)N1CCNc1ccc(F)c2ncccc12,IC50,CWR22R [1],900 nM
same,IC50,DU-145,> 50000 nM
same,Activity,[2],Dose-Dependent Effect
same,Activity,[3],Active
same,Activity,[4],Active
same,Activity,CWR22R [5],Active
same,Activity,CWR22R [6],Active
same,Activity,CWR22R [7],Active
same,Activity,CWR22R [8],Active
same,Activity,CWR22R [9],Active
same,Activity,CWR22R [10],Active
same,Activity,CWR22R [11],Active
same,Activity,CWR22R [12],Active
same,Activity,CWR22R [13],Dose-Dependent Effect
same,Activity,CWR22R [14],Dose-Dependent Effect
same,Activity,CWR22R [15],Dose-Dependent Effect
same,Activity,CWR22R [16],Active
same,Activity,CWR22R [17],Active
same,Activity,CWR22R [18],30.91%
same,Activity,CWR22R [19],Dose-Dependent Effect
same,half-life,[20],4.78 h
same,half-life,[21],1.4 h
same,Vdss,[22],2.5 L/kg
same,AUC(0-t),[23],3060 ng·h/mL
same,MRT last,[24],3.2 h
same,bioavailability,[25],11.9%
same,Activity,[26],Non-Toxic
same,Activity,[27],Non-Toxic
same,Activity,[28],Non-Toxic
same,Activity,CWR22R [29],Active
